Two molecules from publication PMC9841523 (Journal of Medicinal Chemistry, 2022) can be followed below.

For data set [1], the system named is p-P70S6K Thr389. Nature of the data set: AlphaLISA/MSD analysis of S6K phosphorylation in MDA-MB-468 cells. The data set is classed as cell-based. The following applies: Homo sapiens, MDA-MB-468, read-out: pS6K IC50. Here is the method:
Cell culture and reagents. Cells were obtained from ATCC, grown in appropriate medium supplemented with 10% fetal bovine serum and 1% penicillin/streptomycin and maintained at 37 °C in a humidified incubator at 5% CO 2.
AlphaLISA and MesoScale Discovery (MSD) analysis of 4EBP1, S6K and AKT phosphorylation. mTOR substrate phosphorylation in MDA-MB-468 cells was assayed using AlphaLISA SureFire Ultra kits for p4EBP1 Thr37/46, p-P70S6K Thr389 and p-AKT1/2/3 Ser473 (PerkinElmer), and MSD Multi-Array Assay Systems for Phospho-4EBP1 (Thr37/46) and Phospho-AKT (Ser473) (MSD). Cells were seeded at 25,000 cells per well and exposed the next day to serial three-fold dilutions of compounds in complete medium with 0.1% dimethylsulfoxide (DMSO). After indicated incubation times, cells were lysed and AlphaLISA or MSD performed according to the manufacturers’ protocols. Samples were read using an EnVision Multilabel Plate Reader (PerkinElmer) using standard AlphaLISA settings or using an MSD plate reader. Data were plotted as a function of logM [compound] with a sigmoidal concentration response (variable slope) model fitted to the data to estimate the inhibitor half-maximum effective concentration (EC 50) in Prism 7 (GraphPad). Alternatively, results were analyzed as percentage of control in which 0% was set as signal from 1 μM Torin1 and 100% was set as the mean of DMSO wells on each plate, and inhibitor EC 50 was estimated as described
(Alpha assays give light when donor and acceptor beads are brought close together.)

For data set [2], the target named is T1, A2A(h) (agonist radioligand) (Homo sapiens, UniProt P29274).
T1 construct: purchased ActivX Biosciences (KiNativ)
Nature of the data set: Eurofins Safety Screen 44. The class given is binding. To be noted: read-out: % Inhibition of Control Values.

Data set [3] addresses T2, α1A(h) (antagonist radioligand) (Homo sapiens, UniProt P35348).
T2 construct: purchased ActivX Biosciences (KiNativ)
Briefly: Eurofins Safety Screen 44. The data set is classed as binding. To be noted: read-out: % Inhibition of Control Values.

Data set [4] concerns the target T3, α2A(h) (antagonist radioligand) (Homo sapiens, UniProt P08913).
T3 construct: purchased ActivX Biosciences (KiNativ)
Briefly: Eurofins Safety Screen 44. The class given is binding. To be noted: read-out: % Inhibition of Control Values.

Data set [5] addresses T4, β1(h) (agonist radioligand) (Homo sapiens, UniProt P08588).
T4 construct: purchased ActivX Biosciences (KiNativ)
Briefly: Eurofins Safety Screen 44. The class given is binding. To be noted: read-out: % Inhibition of Control Values.

Data set [6] addresses T5, ETA(h) (agonist radioligand) (Homo sapiens, UniProt P25101).
T5 construct: purchased ActivX Biosciences (KiNativ)
Briefly: Eurofins Safety Screen 44. The data set is classed as binding. The following applies: read-out: % Inhibition of Control Values.

Data set [7] deals with T6, H2(h) (antagonist radioligand) (Homo sapiens, UniProt P25021).
T6 construct: purchased ActivX Biosciences (KiNativ)
Briefly: Eurofins Safety Screen 44. To be noted: read-out: % Inhibition of Control Values. The data set is classed as binding.

Data set [8] deals with T7, δ (DOP) (h) (agonist radioligand) (Homo sapiens, UniProt P41143).
T7 construct: purchased ActivX Biosciences (KiNativ)
Briefly: Eurofins Safety Screen 44. The class given is binding. To be noted: read-out: % Inhibition of Control Values.

For data set [9], the target named is T8, μ (MOP) (h) (agonist radioligand) (Homo sapiens, UniProt P35372).
T8 construct: purchased ActivX Biosciences (KiNativ)
T8 sequence (P35372 whole entry): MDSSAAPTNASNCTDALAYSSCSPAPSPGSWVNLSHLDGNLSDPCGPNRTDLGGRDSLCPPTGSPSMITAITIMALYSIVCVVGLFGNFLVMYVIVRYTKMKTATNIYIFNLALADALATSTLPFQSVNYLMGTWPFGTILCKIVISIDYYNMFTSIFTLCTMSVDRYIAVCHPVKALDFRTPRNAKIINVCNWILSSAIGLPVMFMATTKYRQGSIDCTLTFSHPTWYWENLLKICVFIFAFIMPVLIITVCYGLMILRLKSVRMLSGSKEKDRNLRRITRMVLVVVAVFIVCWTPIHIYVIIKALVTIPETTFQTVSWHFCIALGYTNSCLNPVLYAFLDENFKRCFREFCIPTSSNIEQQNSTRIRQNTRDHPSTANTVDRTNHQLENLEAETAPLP
Briefly: Eurofins Safety Screen 44. The data set is classed as binding. The following applies: read-out: % Inhibition of Control Values.

Data set [10] has as its target T9, 5-HT1B (h) (antagonist radioligand) (Homo sapiens, UniProt P28222).
T9 construct: purchased ActivX Biosciences (KiNativ)
Briefly: Eurofins Safety Screen 44. The class given is binding. The following applies: read-out: % Inhibition of Control Values.

For data set [11], the target named is T10, 5-HT2A(h) (agonist radioligand) (Homo sapiens, UniProt P28223).
T10 construct: purchased ActivX Biosciences (KiNativ)
T10 sequence (P28223 whole entry): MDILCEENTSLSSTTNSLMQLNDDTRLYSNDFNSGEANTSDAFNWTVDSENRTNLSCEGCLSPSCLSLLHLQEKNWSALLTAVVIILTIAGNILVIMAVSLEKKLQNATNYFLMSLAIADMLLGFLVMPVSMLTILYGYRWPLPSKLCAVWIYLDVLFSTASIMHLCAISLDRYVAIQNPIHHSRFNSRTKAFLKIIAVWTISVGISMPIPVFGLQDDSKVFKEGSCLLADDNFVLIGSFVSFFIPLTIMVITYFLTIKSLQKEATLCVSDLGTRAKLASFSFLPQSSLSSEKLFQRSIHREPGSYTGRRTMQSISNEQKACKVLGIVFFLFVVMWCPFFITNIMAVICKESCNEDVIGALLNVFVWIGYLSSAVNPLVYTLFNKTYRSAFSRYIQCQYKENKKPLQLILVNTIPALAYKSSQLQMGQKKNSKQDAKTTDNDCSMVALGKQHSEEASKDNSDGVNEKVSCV
Nature of the data set: Eurofins Safety Screen 44. To be noted: read-out: % Inhibition of Control Values. The class given is binding.

Data set [12] concerns AR (h) (agonist radioligand). Nature of the data set: Eurofins Safety Screen 44. The following applies: 10 µM. The data set is classed as binding, human.
The target of data set [13] is T11, V1a(h) (agonist radioligand) (Homo sapiens, UniProt P37288).
T11 construct: purchased ActivX Biosciences (KiNativ)
T11 sequence (P37288 whole entry): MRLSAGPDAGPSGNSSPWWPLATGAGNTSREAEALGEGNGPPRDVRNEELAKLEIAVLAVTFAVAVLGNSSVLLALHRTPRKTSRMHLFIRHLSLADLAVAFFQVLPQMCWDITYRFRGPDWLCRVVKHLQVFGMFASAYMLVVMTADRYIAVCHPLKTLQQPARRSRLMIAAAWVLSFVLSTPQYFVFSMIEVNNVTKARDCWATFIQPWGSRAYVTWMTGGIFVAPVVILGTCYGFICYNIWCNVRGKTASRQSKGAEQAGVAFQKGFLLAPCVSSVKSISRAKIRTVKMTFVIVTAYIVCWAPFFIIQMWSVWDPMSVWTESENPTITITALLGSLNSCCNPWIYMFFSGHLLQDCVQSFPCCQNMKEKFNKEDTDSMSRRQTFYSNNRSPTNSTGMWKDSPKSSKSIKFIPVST
Briefly: Eurofins Safety Screen 44. The following applies: read-out: % Inhibition of Control Values. The class given is binding.

Data set [14] relates to Ca2+ channel (L, dihydropyridine site) (antagonist radioligand). Nature of the data set: Eurofins Safety Screen 44. The data set is classed as binding. To be noted: 10 µM.
The test system of data set [15] is Na+ channel (site 2) (antagonist radioligand). Briefly: Eurofins Safety Screen 44. The class given is binding. To be noted: 10 µM.
The target in data set [16] is T12, norepinephrine transporter(h) (antagonist radioligand) (Homo sapiens, UniProt P23975).
T12 construct: purchased ActivX Biosciences (KiNativ)
T12 sequence (P23975 whole entry): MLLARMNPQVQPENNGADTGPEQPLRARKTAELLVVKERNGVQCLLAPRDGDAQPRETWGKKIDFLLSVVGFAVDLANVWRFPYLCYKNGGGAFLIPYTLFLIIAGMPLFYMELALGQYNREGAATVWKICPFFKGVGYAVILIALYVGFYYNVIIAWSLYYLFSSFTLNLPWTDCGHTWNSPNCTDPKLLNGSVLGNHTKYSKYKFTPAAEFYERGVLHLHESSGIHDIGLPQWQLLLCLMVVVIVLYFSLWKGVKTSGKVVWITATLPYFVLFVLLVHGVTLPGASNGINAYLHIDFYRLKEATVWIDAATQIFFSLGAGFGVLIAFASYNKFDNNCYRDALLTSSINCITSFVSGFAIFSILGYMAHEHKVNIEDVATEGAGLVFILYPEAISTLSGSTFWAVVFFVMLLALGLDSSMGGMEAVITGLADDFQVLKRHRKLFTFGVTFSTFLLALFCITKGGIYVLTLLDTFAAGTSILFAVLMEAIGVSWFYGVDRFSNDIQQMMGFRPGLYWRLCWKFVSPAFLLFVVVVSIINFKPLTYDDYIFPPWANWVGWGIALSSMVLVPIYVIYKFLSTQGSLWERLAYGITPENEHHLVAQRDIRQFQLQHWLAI
Briefly: Eurofins Safety Screen 44. The data set is classed as binding. The following applies: read-out: % Inhibition of Control Values.

Data set [17] concerns the target T13, dopamine transporter(h) (antagonist radioligand) (Homo sapiens, UniProt Q01959).
T13 construct: Eurofins (ran the panel)
Briefly: Eurofins Safety Screen 44. The class given is binding. To be noted: read-out: % Inhibition of Control Values.

In data set [18] the target is T14, 5-HT transporter (h) (antagonist radioligand) (Homo sapiens, UniProt P31645).
T14 construct: Eurofins (ran the panel)
T14 sequence (P31645 whole entry): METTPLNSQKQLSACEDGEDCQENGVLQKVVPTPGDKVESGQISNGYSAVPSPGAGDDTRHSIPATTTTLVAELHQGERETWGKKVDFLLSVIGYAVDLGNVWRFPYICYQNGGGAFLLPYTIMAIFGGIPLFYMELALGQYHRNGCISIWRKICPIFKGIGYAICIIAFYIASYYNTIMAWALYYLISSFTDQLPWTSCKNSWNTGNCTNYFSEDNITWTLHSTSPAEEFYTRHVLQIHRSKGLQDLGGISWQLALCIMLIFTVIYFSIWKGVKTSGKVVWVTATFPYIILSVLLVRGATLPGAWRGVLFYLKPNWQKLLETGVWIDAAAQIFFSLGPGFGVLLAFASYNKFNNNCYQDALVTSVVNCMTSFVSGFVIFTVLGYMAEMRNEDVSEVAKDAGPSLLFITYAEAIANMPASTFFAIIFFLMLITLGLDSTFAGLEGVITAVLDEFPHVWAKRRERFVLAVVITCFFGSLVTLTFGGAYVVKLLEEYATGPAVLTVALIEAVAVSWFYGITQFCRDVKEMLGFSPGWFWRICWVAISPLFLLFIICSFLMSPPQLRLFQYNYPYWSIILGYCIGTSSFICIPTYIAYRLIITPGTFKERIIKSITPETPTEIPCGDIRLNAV
Briefly: Eurofins Safety Screen 44. The data set is classed as binding. To be noted: read-out: % Inhibition of Control Values.

Data set [19] has as its target T15, PDE3A (h) (Homo sapiens, UniProt Q14432).
T15 construct: Eurofins (ran the panel)
Nature of the data set: Eurofins Safety Screen 44. The data set is classed as biochemical. The following applies: read-out: % Inhibition of Control Values.

Data set [20] addresses T16, PDE4D2 (h) (Homo sapiens, UniProt Q08499).
T16 construct: Eurofins (ran the panel)
Briefly: Eurofins Safety Screen 44. The following applies: read-out: % Inhibition of Control Values. The data set is classed as biochemical.

Data set [21] deals with Safety Screen 44 off-targets. Nature of the data set: Eurofins Safety Screen 44, whole panel. To be noted: 10 µM.
Data set [22] has as its system NCI-H2122 NSCLC CDX. Briefly: NCI-H2122 NSCLC CDX model. The data set is classed as in vivo. The following applies: RMC-6272 10 mg/kg ip once weekly; sotorasib 100 mg/kg po qd; single agents or combination. The procedure: groups when mean tumor volume reached 400–600 mm 3. Tumor and plasma samples were collected for PK and PD analysis at indicated time points after a single dose of indicated […]
doses. Everolimus was formulated in v/v/v/, 30/5/65 Propylene glycol/Tween 80/H 2O.
NCI-H2122 xenograft studies. Female Balb/c nude mice (Beijing V.R Biotechnology Co. […]
per inoculation. When mean tumor volume reached between 150–200 mm 3, mice were […]
Transcutol/Solutol HS 15/H 2O. Sotorasib (AMG 510) was administered by oral gavage at 100 mg/kg daily and formulated in 2% (w/v) HPMC E-50, 0.5% Tween 80 in 50 mM sodium citrate […]
In vivo pharmacodynamics. Snap frozen tumors collected were homogenized with MSD complete lysis buffer (as prepared according to Meso Scale Discovery kit protocol) using PreCellys Bead Shaker (Bertin Instruments) according to manufacturer's protocol. Phospho-4E-BP1(Thr37/46) Whole Cell Lysate Kit (Meso Scale Discovery) was used to quantify phosphorylation of 4E-BP1 in the tumors according to manufacturer's protocol.
Expression and purification of FKBP12, FRB domain, and RHEB-GTPγS. DNA pET28

In data set [23] the test system is ROCK1, ROCK2. Briefly: KiNativ kinase panel. The class given is cell-based, human. To be noted: 1 μM; MCF-7 Cells; Lys1; VYAMKLLSK
Data set [24] deals with RSK1 domain1, RSK2 domain1, RSK3 domain1. Briefly: KiNativ kinase panel. The following applies: 1 μM; MCF-7 Cells; Lys2; DLKPENILLDEEGHIK
The class given is cell-based, human.

The subject of data set [25] is Wnk1, Wnk2, Wnk3. Briefly: KiNativ kinase panel. To be noted: 1 μM; MCF-7 Cells; Lys2; DLKCDNIFITGPTGSVK
The data set is classed as cell-based, human.

T2 sequence (P35348 whole entry): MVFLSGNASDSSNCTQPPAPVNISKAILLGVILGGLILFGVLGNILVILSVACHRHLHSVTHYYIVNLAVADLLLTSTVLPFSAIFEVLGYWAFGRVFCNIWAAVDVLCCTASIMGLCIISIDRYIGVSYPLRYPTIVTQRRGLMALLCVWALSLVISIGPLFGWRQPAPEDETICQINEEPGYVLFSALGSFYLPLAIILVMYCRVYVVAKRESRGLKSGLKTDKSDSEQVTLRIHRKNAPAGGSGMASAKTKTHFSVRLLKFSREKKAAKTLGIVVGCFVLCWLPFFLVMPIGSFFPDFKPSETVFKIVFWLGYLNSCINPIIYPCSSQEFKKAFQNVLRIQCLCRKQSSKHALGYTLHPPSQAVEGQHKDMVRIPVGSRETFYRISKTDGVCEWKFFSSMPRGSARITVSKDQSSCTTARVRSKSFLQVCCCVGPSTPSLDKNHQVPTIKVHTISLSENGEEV
T16 sequence (Q08499 303-809 limits assumed): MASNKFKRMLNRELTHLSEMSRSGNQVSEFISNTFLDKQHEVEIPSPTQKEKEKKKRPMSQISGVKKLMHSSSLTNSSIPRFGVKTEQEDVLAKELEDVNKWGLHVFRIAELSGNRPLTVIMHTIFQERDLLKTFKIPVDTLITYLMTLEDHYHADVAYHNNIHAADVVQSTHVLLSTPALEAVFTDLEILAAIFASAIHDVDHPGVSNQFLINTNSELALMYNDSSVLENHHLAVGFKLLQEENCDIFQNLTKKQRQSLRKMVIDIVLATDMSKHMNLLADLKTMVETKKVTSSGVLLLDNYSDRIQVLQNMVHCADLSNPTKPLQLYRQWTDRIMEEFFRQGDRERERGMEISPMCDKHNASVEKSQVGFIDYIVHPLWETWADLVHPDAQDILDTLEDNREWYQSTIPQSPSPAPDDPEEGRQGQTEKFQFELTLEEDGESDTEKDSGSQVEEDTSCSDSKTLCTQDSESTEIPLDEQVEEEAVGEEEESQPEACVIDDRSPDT
T4 sequence (P08588 whole entry): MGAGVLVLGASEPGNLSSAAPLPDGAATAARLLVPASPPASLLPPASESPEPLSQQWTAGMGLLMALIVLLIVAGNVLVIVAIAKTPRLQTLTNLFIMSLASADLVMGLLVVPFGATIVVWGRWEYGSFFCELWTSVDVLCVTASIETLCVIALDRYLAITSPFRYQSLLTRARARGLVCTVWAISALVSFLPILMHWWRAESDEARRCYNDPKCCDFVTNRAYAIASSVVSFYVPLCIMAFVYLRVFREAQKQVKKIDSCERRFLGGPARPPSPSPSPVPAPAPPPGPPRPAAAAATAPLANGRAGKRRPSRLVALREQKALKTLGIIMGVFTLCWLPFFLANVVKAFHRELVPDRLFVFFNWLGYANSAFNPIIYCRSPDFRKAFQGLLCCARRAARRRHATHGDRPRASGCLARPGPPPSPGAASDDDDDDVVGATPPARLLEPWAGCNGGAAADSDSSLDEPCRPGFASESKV
T3 sequence (P08913 whole entry): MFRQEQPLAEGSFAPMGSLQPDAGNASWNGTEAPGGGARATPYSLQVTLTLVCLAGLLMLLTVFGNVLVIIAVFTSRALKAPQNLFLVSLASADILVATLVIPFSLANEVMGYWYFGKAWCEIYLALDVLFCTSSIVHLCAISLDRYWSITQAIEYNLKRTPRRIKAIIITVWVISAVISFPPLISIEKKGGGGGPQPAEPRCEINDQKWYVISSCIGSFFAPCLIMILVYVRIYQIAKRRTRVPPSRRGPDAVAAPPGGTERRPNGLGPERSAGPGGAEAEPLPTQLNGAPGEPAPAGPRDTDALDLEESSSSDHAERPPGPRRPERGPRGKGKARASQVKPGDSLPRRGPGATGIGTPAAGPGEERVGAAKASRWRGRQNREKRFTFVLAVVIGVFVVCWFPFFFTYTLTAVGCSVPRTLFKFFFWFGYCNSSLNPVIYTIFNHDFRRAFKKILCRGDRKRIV
T9 sequence (P28222 whole entry): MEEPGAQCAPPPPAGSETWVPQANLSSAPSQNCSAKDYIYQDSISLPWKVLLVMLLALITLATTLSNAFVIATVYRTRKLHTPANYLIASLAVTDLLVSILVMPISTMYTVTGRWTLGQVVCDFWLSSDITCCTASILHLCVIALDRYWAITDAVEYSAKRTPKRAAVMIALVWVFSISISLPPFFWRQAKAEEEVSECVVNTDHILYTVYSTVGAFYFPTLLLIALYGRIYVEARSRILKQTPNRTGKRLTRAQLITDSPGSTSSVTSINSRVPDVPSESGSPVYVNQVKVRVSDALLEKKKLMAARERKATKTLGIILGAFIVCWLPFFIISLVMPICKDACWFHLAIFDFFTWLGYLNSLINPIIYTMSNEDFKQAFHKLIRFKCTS

As for `CO[C@H]1C[C@@H]2CC[C@@H](C)[C@@](O)(O2)C(=O)C(=O)N2CCCC[C@H]2C(=O)O[C@H]([C@H](C)C[C@@H]2CC[C@@H](OC(=O)NCCOCCOCCOCCOCCOCCOCCOCCOCCC(=O)N3CCc4cc(Cn5nc(-c6ccc7oc(N)nc7c6)c6c(N)ncnc65)ccc4C3)[C@H](OC)C2)C[C@@H](O)[C@H](C)/C=C(\C)[C@@H](O)[C@@H](OC)C(=O)[C@H](C)C[C@H](C)/C=C/C=C/C=C/1C` [compound 38], the IC50 (as a rule, the concentration needed to halve the response being measured) in [1] turned out to be 0.14 nM. Moreover, the inhibition (as a rule, the relative decrease from the control value, in per cent) at 10 µM is -4.5% in [2]; 0.6% in [3]; -2.1% in [4]; 3% in data set [5]; 16.8% in data set [6]; -1.1% in data set [7]. For the same molecule, the inhibition at 10 µM was 11.6% in data set [8]; 10.3% in [9]; 13.1% in [10]; -28.9% in data set [11]; 6.5% in data set [13]; -15.7% in data set [16]. Also, the inhibition at 10 µM in [17] was -1.5%; in data set [18], -4.5%; in data set [19] it was -47.2%; in data set [20], -45.6%. Also, the figures for the “% Inhibition of Control Values” in [12], in data set [14] and in [15] were -14.9%, -45.0% and 1.0%, respectively. Moreover, the “Eurofins Safety Screen 44 inhibition” value in [21] was <5% inhibition (low promiscuity). In addition, in data set [21], the “Eurofins Safety Screen 44 result” value was “no significant inhibition”.
Take `CO[C@H]1C[C@@H]2CC[C@@H](C)[C@@](O)(O2)C(=O)C(=O)N2CCCC[C@H]2C(=O)O[C@H]([C@H](C)C[C@@H]2CC[C@@H](OC(=O)NCCOCCOCCOCCOCCOCCOCCOCCOCCC(=O)NCCS(=O)(=O)c3ccc(C(=O)N4CCOc5ccc(-c6ccc(N)nc6)cc5C4)c(C)c3F)[C@H](OC)C2)C[C@@H](O)[C@H](C)/C=C(\C)[C@@H](O)[C@@H](OC)C(=O)[C@H](C)C[C@H](C)/C=C/C=C/C=C/1C` [compound 40]: the “antitumor activity (tumor regressions) in NCI-H2122 CDX model” value in data set [22] was “Neither”. In addition, the entries for the “KiNativ Kinase Panel Data” value in [23], in [24] and in data set [25] were -42.0, 27.4 and -40.3, respectively.
